Assay results taken from PubChem BioAssay (NCI).
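Test compounds were applied to cells in 96-well plates for 48 hours at 5 doses. The concentration for 50% growth inhibition is given as GI50. The concentration for full growth arrest is given as TGI.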

Each compound was assayed on OVCAR-8 ovarian (assay: NCI tumour cell line growth inhibition, 48 h).

SMILES | GI50 | TGI
C#C[C@]1(O)CC[C@H]2[C@@H]3CC=C4c5sc(Nc6ccccc6)nc5CC[C@]4(C)[C@H]3CC[C@@]21C | 2.71 µM | 26.8 µM
COc1cc(NC(C)CCCN)c2nccc(C)c2c1OC (stereo not drawn) | 14.5 µM | 42.3 µM
COc1cc2c(cc1OC)C13CCN4CC5=CCOC6CC(=O)N2C1C6C5CC43O (stereo not drawn) |  | > 100 µM
O/N=C\c1c(O)ccc2ccccc12 |  | > 100 µM
Cc1n(Cc2ccc3ccccc3c2)cc[n+]1Cc1ccc2ccccc2c1 | 1.21 µM | 10.3 µM
Cc1c(C2Nc3ccccc3C2C)[nH]c2ccccc12 (stereo not drawn) | 9.1 µM | 29.2 µM
O=C(CCC(=O)Nc1cccc(Cl)c1)CC(=O)c1ccc(Cl)cc1 |  | > 100 µM
O=C(O)c1ccccc1-c1ccccc1C(=O)Nc1ccc2c(c1)Cc1cc(F)ccc1-2 |  | > 100 µM
Cc1[nH]n(-c2cccc(Cl)c2)c(=O)c1/C=C1\C=Nc2ccc(Br)cc21 | 3.52 µM | 13.8 µM
CCN(CC)CCNCC(=O)Oc1ccc(/C=C/C(=O)CC(=O)/C=C/c2ccc(OC(=O)CNCCN(CC)CC)c(OC)c2)cc1OC | 3.69 µM | 15 µM
O=C(O)Cc1c(O)ccc2ccccc12 |  | > 100 µM
CC(=O)O[C@@H]1C[C@]2(C(C)C)O[C@@]1(C)[C@@H]1CCC(C)=C1[C@@H]2OC(=O)/C=C/c1ccccc1 | 8.89 µM | > 100 µM
O=C(CSc1nnc(-c2ccccc2NC(=O)C(F)(F)F)c(=O)[nH]1)NC(=O)Nc1ccccc1 |  | > 100 µM
O=C1c2ccn(CCCCNC(CO)(CO)CO)c2C(=O)c2c1c(O)c1ccccc1c2O | 2.17 µM | 11.4 µM
COc1ccc(C(=O)C(CO)Oc2ccccc2OC)cc1OC (stereo not drawn) |  | > 100 µM

The compounds below were run on RXF 393 renal (assay: NCI tumour cell line growth inhibition, 48 h).

SMILES | TGI | GI50
CC(C)(C)C(=O)/C=C/c1ccc(Oc2ccccc2)cc1 | 52.8 µM | 
Cc1c[n+](Cc2ccc3ccccc3c2)cn1Cc1ccc2ccccc2c1 | 3.47 µM | 1.62 µM
Cc1cn2c(/C=C3/C(=O)Nc4ccccc43)c(-c3ccc(Cl)cc3)nc2s1 | 12.9 µM | 3.72 µM
COc1ccccc1NC(=O)C1=C(C)NC(C)=C(C(=O)Nc2ccccc2OC)C1c1ccc([N+](=O)[O-])cc1 | > 100 µM | 
COC(COC(=O)N1CCN(C=O)CC1)C1=C(N2CC2)C(=O)C(C)=C(N2CC2)C1=O (stereo not drawn) | 0.815 µM | 
COc1cc(NC(C)CCCN)c2nccc(C)c2c1OC (stereo not drawn) | 40.3 µM | 17.1 µM
O/N=C\c1c(O)ccc2ccccc12 | > 100 µM | 
Cc1n(Cc2ccc3ccccc3c2)cc[n+]1Cc1ccc2ccccc2c1 | 3.4 µM | 0.857 µM
Cc1c(C2Nc3ccccc3C2C)[nH]c2ccccc12 (stereo not drawn) | 28.8 µM | 12.4 µM
O=C(O)c1ccccc1-c1ccccc1C(=O)Nc1ccc2c(c1)Cc1cc(F)ccc1-2 | > 100 µM | 
Cc1[nH]n(-c2cccc(Cl)c2)c(=O)c1/C=C1\C=Nc2ccc(Br)cc21 | 4.01 µM | 1.86 µM
CC(=O)Oc1ccccc1C(=O)N=C1[Se]CCCN1C(=O)c1ccccc1OC(C)=O | 6.92 µM | 2.48 µM
O=C(O)Cc1c(O)ccc2ccccc12 | > 100 µM | 
CC(=O)O[C@@H]1C[C@]2(C(C)C)O[C@@]1(C)[C@@H]1CCC(C)=C1[C@@H]2OC(=O)/C=C/c1ccccc1 | 65.9 µM | 8.83 µM
O=C(CSc1nnc(-c2ccccc2NC(=O)C(F)(F)F)c(=O)[nH]1)NC(=O)Nc1ccccc1 | > 100 µM | 

The compounds below were run on UACC-62 melanoma (assay: NCI tumour cell line growth inhibition, 48 h).

SMILES | GI50 | TGI
Nc1c(C(=O)N/N=C/c2ccc(-c3ccc(Cl)cc3)o2)cnn1-c1ccnc2c(C(F)(F)F)cccc12 | > 100 µM | > 100 µM
CCCCCc1c(C)[nH]c(/C=C2\N=C(c3ccc[nH]3)C=C2CC)c1C | 0.0158 µM | 0.043 µM
Cc1c[n+](Cc2ccc3ccccc3c2)cn1Cc1ccc2ccccc2c1 | 1.41 µM | 3.12 µM
COc1cc(/C=C2\C(=O)Nc3ccc(F)cc32)cc(OC)c1OC | 11.7 µM | > 100 µM
Cc1cn2c(/C=C3/C(=O)Nc4ccccc43)c(-c3ccc(Cl)cc3)nc2s1 | 5.49 µM | 11.5 µM
COc1ccccc1NC(=O)C1=C(C)NC(C)=C(C(=O)Nc2ccccc2OC)C1c1ccc([N+](=O)[O-])cc1 |  | > 100 µM
COC(COC(=O)N1CCN(C=O)CC1)C1=C(N2CC2)C(=O)C(C)=C(N2CC2)C1=O (stereo not drawn) |  | 1.35 µM
O=C(Nc1cccc(Cl)c1Cl)c1cccc(NC2=C(Cl)C(=O)N(Cc3ccccc3)C2=O)c1 | 22.2 µM | > 100 µM
C#C[C@]1(O)CC[C@H]2[C@@H]3CC=C4c5sc(Nc6ccccc6)nc5CC[C@]4(C)[C@H]3CC[C@@]21C | 2.13 µM | 6.44 µM
COc1cc(NC(C)CCCN)c2nccc(C)c2c1OC (stereo not drawn) | 16.6 µM | 32.1 µM
CSC1(CC(=O)N(C)C)C(=O)Nc2ccccc21 (stereo not drawn) |  | > 100 µM
COc1cc2c(cc1OC)C13CCN4CC5=CCOC6CC(=O)N2C1C6C5CC43O (stereo not drawn) |  | > 100 µM
O/N=C\c1c(O)ccc2ccccc12 |  | > 100 µM
Cc1n(Cc2ccc3ccccc3c2)cc[n+]1Cc1ccc2ccccc2c1 | 0.843 µM | 2.42 µM
Cc1c(C2Nc3ccccc3C2C)[nH]c2ccccc12 (stereo not drawn) | 6.24 µM | 21.3 µM
O=C(CCC(=O)Nc1cccc(Cl)c1)CC(=O)c1ccc(Cl)cc1 |  | > 100 µM
O=C(O)c1ccccc1-c1ccccc1C(=O)Nc1ccc2c(c1)Cc1cc(F)ccc1-2 |  | 36.8 µM
Cc1[nH]n(-c2cccc(Cl)c2)c(=O)c1/C=C1\C=Nc2ccc(Br)cc21 | 4.34 µM | 18.2 µM
CCN(CC)CCNCC(=O)Oc1ccc(/C=C/C(=O)CC(=O)/C=C/c2ccc(OC(=O)CNCCN(CC)CC)c(OC)c2)cc1OC | 2.73 µM | 7.8 µM
O=C(O)Cc1c(O)ccc2ccccc12 |  | > 100 µM
CC(=O)O[C@@H]1C[C@]2(C(C)C)O[C@@]1(C)[C@@H]1CCC(C)=C1[C@@H]2OC(=O)/C=C/c1ccccc1 | 26.5 µM | > 100 µM
O=C(CSc1nnc(-c2ccccc2NC(=O)C(F)(F)F)c(=O)[nH]1)NC(=O)Nc1ccccc1 |  | > 100 µM
O=C1c2ccn(CCCCNC(CO)(CO)CO)c2C(=O)c2c1c(O)c1ccccc1c2O |  | 0.931 µM
COc1ccc(C(=O)C(CO)Oc2ccccc2OC)cc1OC (stereo not drawn) |  | > 100 µM
